A word on the LD50: it is the dose at which mortality reaches 50%.

Several values for one entry are separate records, joined by “and”; a condition that tells them apart may be missing. Equal entries are not always repeated.

The values that follow come from patent US4155909A, “2-Alkyl nicotinoids and processes for their production” (priority 1977, dated 1979).

Data set [1] can be described thus: Mammalian toxicity, LD50 in mice. The data set is classed as in vivo, mouse. Conditions: in vivo; mouse; measure of mammalian toxicity. The text has this:
(§1) In the first column, the LD50 of the compounds in mice is a measure of their mammalian toxicity. The second column illustrates the effectiveness of the candidate compounds as insecticides as compared to nicotine, whereas the third column is the ratio of insecticidal effectiveness to mammalian toxicity.

In another data set the test system is Aphids. The data set can be described thus: Aphid spray test on replicate ivy cuttings infested with Aphids. The data set is classed as in vivo. As to conditions: for Avg. % Dead / % Dead / Insecticidal Effectiveness: aphids; for Avg. % Dead: average of 3 replicates; for Avg. % Dead / % Dead / No. of Aphids Alive / No. of Aphids Dead: 5 ml sprayed, 18 hours; for % Dead / No. of Aphids Alive / No. of Aphids Dead: per replicate (1, 2, 3); for Insecticidal Effectiveness: as compared to nicotine (100%); for No. of Aphids Alive / No. of Aphids Dead: 100 mg in 10 ml ethanol + 40 ml water with surfactant. The procedure: A 100 mg sample of the candidate compound was dissolved in 10 ml absolute ethanol. To the solution was added 40 ml tap water containing 0.5 ml of 1% surfactant. A 5 ml sample of each solution was sprayed on to replicate ivy cuttings infested with Aphids. The results, tabulated below in Table I were recorded 18 hours following the application of the sprays. […]
as §1

Another data set relates to female house flies. Put plainly: Topical application to the notum of female house flies. The data set is classed as in vivo. As to conditions: for insecticidal effectiveness in words: common houseflies, compared with nicotine; for Avg. % Dead / Percent Dead, Run 1 / Percent Dead, Run 2: house flies, 50 mg in 0.4 ml ethanol, 0.3 μl applied, 24 hours; for Avg. % Dead: average of Run 1 and Run 2. The procedure: A 50 mg sample of the candidate compound was dissolved on 0.4 ml absolute ethanol. A 0.3 μl sample of the solution was applied to the notum of female house flies which has been anesthetized with ether. Results were read twenty-four hours later.

In another data set the test system is mouse. Put plainly: Mammalian toxicity, LD50 in mice. The data set is classed as in vivo. Conditions: compared with nicotine.
Text: as §1

A further data set has as its system mammals. Conditions: Haglid et al., compared with nicotine; cited from earlier work.

Regarding `Cc1ncccc1C1CCCCN1` (centres unmarked) [2-methylanabasine, 2-Methyl-3-(2-piperidinyl)pyridine], in data set [1], the LD50 is 15.7 mg/kg. In addition, in the data set with Aphids, the “Avg. % Dead” value came out at 52%; the “Insecticidal Effectiveness” value is on record as 52%; the “No. of Aphids Alive” value is 24 and 27 and 87; the “No. of Aphids Dead” value was 39 and 27 and 66. The “% Dead” value in the data set on Aphids (1080 min) was 62% and 50% and 43%.

Take `Cc1ncccc1C1CCCN1C` (centres unmarked) [2-methylnicotine, 2-Methyl-3-(1-methyl-2-pyrrolidinyl)pyridine]: in the data set on female house flies, the “insecticidal effectiveness in words” value is “as effective an insecticide as nicotine itself”; the “Avg. % Dead” value is recorded as 100%; the “Percent Dead, Run 1” value was 100%; the “Percent Dead, Run 2” value is 100%. The “mammalian toxicity in words” value with mouse is listed as “lower mammalian toxicity than nicotine”. In the data set with Aphids, the “Avg. % Dead” value is given as 6%; the “No. of Aphids Alive” value was 54 and 38 and 55; the “No. of Aphids Dead” value is 2 and 5. Besides, in the data set with Aphids (1080 min), the “% Dead” value was 4% and 5% and 8%.

The compound `Cc1ccc(C2CCCN2C)c(C)n1` (centres unmarked) [2,6-dimethylnicotine, 2,6-Dimethyl-3-(1-methyl-2-pyrrolidinyl)pyridine] registered an LD50 in data set [1] of 41 mg/kg. In addition, in the data set with Aphids, the “Avg. % Dead” value is given as 6%; the “Insecticidal Effectiveness” value stood at 6%; the “No. of Aphids Alive” value is 32 and 20 and 87; the “No. of Aphids Dead” value was 0 and 3 and 66. Further, in the data set with Aphids (1080 min), the “% Dead” value is 0% and 13% and 4%.

As to `Cc1ccc(C2CCCN2C)cn1` (centres unmarked) [6-methylnicotine], the “nicotinic / pharmacological activity in words” value in the data set with mammals is listed as “identical in pharmacological activity to nicotine itself”.

As to `Cc1ncccc1C1CCCN1` (centres unmarked) [2-methylnornicotine, 2-Methyl-3-(2-pyrrolidinyl)pyridine], in the data set on female house flies, the “insecticidal effectiveness in words” value was “only slightly less effective”; the “Avg. % Dead” value is given as 70%; the “Percent Dead, Run 1” value is recorded as 80%; the “Percent Dead, Run 2” value was found to be 60%. In data set [1], this compound gave an LD50 of 100 mg/kg. For the same compound, in the data set with Aphids, the “Avg. % Dead” value is 3%; the “Insecticidal Effectiveness” value was found to be 3%; the “No. of Aphids Alive” value is 39 and 27 and 30; the “No. of Aphids Dead” value was 2 and 0. Also, the “% Dead” value in the data set with Aphids (1080 min) is 2% and 7% and 0%.

In the case of `Cc1ccncc1C1CCCN1C` (centres unmarked) [4-methylnicotine], the “nicotinic / pharmacological activity in words” value in the data set with mammals was “little or no nicotinic activity”.

Turning to `CN1CCC[C@H]1c1cccnc1` [l-nicotine, reference compound], in the data set with female house flies, the “Avg. % Dead” value stood at 100%; the “Percent Dead, Run 1” value stood at 100%; the “Percent Dead, Run 2” value amounted to 100%. Moreover, the LD50 in data set [1] amounted to 0.26 mg/kg. Moreover, in the data set on Aphids, the “Avg. % Dead” value is given as 100%; the “% Dead” value is given as 100%; the “No. of Aphids Alive” value came out at 0; the “No. of Aphids Dead” value was 45 and 27 and 39.
